Measured values: US20230150974A1 (Foghorn Therapeutics Inc., priority 2020, published 2023)
Where a name gives a salt, the structure may show the parent alone.

Tests used:
HiBiT-BRM = biological target: T1, HiBiT-BRM (Homo sapiens, UniProt P51531); test: HiBiT-BRM cell-based degradation assay (Nano-Glo HiBiT Lytic Detection); settings: HeLa cells expressing HiBiT-BRM, 24 h; for DC50: read-out: BRM HiBit Degradation IC50
T1 construct: expressed in transfected cells
Outline: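 Luminescence from HiBiT–LgBiT complementation in lysates of a stable HiBiT-BRM HeLa line measured after 24 h compound exposure. Degradation expressed as percent relative to DMSO-treated cells and cells given 2 μM of a known BRM/BRG1 degrader.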

HiBit-BRG1 = biological target: T2, HiBit-BRG1 (Homo sapiens, UniProt P51532); test: HiBit-BRG1 cell-based degradation assay (Nano-Glo HiBiT Lytic Detection); settings: HeLa cells expressing HiBit-BRG1 and LgBit, 24 h; for DC50: read-out: BRG1 HiBit Degradation IC50; for Dmax: read-out: BRG1 HiBit Degradation Maximum (%)
T2 construct: expressed in transfected cells
T2 sequence (P51532 whole entry): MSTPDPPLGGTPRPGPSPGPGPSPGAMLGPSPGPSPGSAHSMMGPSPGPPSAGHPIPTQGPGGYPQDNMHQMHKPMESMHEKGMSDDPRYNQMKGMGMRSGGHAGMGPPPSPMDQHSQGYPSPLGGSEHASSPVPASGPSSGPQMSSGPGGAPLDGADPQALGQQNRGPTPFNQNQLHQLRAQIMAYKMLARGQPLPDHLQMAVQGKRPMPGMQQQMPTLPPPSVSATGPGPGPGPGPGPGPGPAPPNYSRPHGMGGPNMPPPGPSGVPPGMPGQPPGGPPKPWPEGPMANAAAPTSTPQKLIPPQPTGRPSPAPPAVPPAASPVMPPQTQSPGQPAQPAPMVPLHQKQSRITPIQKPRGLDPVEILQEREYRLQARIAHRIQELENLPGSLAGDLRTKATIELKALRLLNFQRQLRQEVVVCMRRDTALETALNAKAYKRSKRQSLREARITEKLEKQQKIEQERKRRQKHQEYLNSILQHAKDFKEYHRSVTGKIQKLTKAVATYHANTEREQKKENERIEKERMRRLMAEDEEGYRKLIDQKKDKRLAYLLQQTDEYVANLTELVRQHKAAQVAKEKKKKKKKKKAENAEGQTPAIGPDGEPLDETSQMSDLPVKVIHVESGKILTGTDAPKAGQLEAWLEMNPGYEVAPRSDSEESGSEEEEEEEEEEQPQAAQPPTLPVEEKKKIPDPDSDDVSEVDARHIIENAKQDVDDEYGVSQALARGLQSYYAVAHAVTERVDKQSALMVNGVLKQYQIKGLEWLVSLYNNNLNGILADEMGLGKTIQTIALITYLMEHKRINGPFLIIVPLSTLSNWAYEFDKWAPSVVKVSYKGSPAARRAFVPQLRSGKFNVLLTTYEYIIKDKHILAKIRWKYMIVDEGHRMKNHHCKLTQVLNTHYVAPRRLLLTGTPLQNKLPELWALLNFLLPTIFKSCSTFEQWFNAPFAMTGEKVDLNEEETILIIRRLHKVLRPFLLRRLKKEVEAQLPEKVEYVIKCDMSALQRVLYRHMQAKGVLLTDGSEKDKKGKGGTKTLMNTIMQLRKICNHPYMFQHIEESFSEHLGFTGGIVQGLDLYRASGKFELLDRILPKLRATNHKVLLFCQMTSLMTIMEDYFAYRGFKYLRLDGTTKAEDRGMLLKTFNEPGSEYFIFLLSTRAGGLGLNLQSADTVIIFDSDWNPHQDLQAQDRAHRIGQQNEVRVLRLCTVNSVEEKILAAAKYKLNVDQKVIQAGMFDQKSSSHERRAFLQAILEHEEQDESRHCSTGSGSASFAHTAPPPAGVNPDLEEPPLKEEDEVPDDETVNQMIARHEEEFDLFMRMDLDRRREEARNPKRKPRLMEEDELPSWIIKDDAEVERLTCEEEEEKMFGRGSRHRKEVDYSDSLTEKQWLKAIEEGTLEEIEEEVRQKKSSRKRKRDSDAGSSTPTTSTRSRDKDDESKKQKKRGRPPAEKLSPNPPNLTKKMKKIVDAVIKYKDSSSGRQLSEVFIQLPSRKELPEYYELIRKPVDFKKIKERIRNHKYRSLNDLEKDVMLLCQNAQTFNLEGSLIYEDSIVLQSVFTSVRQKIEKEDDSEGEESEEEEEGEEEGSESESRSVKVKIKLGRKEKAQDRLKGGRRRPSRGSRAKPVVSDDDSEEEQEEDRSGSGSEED
Outline: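 Stable HeLa line co-expressing HiBit-BRG1 and LgBit, 5000 cells/well, treated 24 h in a tissue culture incubator. Lysed with Nano-Glo HiBiT lytic reagent, luminescence read. % degradation normalized to DMSO (high control) and 2 μM reference BRM/BRG1 degrader (low control).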

T1 sequence (P51531 whole entry): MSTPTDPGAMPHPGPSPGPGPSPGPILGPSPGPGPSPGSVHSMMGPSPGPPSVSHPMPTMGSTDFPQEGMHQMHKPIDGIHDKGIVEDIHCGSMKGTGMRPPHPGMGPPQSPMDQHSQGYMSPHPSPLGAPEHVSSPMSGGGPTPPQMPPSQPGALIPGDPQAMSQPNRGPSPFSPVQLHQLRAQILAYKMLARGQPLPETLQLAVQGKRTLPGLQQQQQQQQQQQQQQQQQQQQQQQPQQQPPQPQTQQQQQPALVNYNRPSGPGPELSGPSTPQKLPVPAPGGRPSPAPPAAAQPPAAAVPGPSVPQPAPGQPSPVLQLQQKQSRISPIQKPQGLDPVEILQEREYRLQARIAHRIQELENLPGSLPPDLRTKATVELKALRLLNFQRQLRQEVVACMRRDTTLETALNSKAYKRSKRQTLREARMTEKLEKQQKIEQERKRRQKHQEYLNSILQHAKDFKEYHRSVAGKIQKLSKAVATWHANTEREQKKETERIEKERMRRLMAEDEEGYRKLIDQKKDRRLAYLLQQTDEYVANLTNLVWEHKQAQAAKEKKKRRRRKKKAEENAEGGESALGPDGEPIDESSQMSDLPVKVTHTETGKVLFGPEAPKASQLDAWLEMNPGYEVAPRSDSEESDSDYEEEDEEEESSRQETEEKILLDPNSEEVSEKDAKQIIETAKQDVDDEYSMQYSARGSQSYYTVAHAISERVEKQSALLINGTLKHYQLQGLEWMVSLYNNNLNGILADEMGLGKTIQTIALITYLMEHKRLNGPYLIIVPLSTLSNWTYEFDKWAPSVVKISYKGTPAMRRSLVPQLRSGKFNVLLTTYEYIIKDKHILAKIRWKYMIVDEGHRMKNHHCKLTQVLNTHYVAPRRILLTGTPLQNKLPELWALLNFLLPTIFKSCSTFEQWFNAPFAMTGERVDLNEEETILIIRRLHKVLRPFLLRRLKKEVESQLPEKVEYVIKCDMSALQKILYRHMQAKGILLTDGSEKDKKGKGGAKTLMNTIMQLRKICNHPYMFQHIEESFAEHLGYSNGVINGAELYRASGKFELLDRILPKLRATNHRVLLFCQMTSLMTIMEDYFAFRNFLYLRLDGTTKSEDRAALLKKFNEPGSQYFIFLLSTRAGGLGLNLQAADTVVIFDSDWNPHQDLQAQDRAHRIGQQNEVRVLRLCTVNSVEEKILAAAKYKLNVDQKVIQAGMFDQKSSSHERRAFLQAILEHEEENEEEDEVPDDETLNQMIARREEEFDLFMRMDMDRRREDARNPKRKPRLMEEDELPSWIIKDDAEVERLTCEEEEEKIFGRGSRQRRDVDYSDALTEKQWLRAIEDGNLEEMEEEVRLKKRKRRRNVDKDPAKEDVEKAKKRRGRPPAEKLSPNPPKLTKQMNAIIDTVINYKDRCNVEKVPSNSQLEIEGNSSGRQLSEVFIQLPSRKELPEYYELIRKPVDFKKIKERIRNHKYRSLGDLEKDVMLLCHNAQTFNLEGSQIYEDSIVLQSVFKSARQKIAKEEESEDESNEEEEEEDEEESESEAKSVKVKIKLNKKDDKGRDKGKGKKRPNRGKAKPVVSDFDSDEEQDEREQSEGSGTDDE

| Compound | BRM HiBit Degradation Maximum (%) (HiBiT-BRM) | DC50 (HiBiT-BRM) [µM] | DC50 (HiBit-BRG1) [µM] | Dmax (HiBit-BRG1) [%] |
| --- | --- | --- | --- | --- |
| Nc1nnc(-c2ccccc2O)cc1OCCc1ccc(CNC(=O)CCCCOc2ccc3c(c2)C(=O)N(C2CCC(=O)NC2=O)C3=O)cc1 (centres unmarked) [Compound 5, N-(4-(2-((3-amino-6-(2-hydroxyphenyl)pyridazin-4-yl)oxy)ethyl)benzyl)-5-((2-(2,6-dioxopiperidin-3-yl)-1,3-dioxoisoindolin-5-yl)oxy)pentanamide] | C (“C” indicates maximum degradation <50%) | > 1 | > 1 | – |
| Nc1nnc(-c2ccccc2O)cc1OCCc1ccc(C(=O)NCCS(=O)(=O)CCNc2cccc3c2C(=O)N(C2CCC(=O)NC2=O)C3=O)cc1 (centres unmarked) [Compound 55, 4-(2-[[3-amino-6-(2-hydroxyphenyl)pyridazin-4-yl]oxy]ethyl)-N-[2-(2-[[2-(2,6-dioxopiperidin-3-yl)-1,3-dioxoisoindol-4-yl]amino]ethanesulfonyl)ethyl]benzamide] | C (“C” indicates maximum degradation <50%) | > 1 | > 1 | < 50 |
| Nc1nnc(-c2ccccc2O)cc1OCCc1ccc(CNC(=O)CCCCCCCCNc2ccc3c(c2)C(=O)N(C2CCC(=O)NC2=O)C3=O)cc1 (centres unmarked) [Compound 73, N-(4-(2-((3-amino-6-(2-hydroxyphenyl)pyridazin-4-yl)oxy)ethyl)benzyl)-9-((2-(2,6-dioxopiperidin-3-yl)-1,3-dioxoisoindolin-5-yl)amino)nonanamide] | C (“C” indicates maximum degradation <50%) | > 1 | > 1 | < 50 |
| Nc1nnc(-c2ccccc2O)cc1OCCc1ccc(CNCCCCCNc2cccc3c2C(=O)N(C2CCC(=O)NC2=O)C3=O)cc1 (centres unmarked) [Compound 112, 4-[[5-([[4-(2-[[3-amino-6-(2-hydroxyphenyl)pyridazin-4-yl]oxy]ethyl)phenyl]methyl]amino)pentyl]amino]-2-(2,6-dioxopiperidin-3-yl)isoindole-1,3-dione] | B (“B” indicates maximum degradation ≥50%) | > 0.01 | > 1 | > 50 |
| Cc1ncsc1-c1ccc(CNC(=O)[C@@H]2C[C@@H](O)CN2C(=O)[C@@H](NC(=O)CCCCN2CCN(CCOc3cc(N4[C@@H]5CC[C@H]4CN(c4cc(-c6ccccc6O)nnc4N)C5)ccn3)CC2)C(C)(C)C)cc1 [Compound 234, (2S,4R)-1-((2S)-2-(5-(4-(2-((4-(3-(3-amino-6-(2-hydroxyphenyl)pyridazin-4-yl)-3,8-diazabicyclo[3.2.1]octan-8-yl)pyridin-2-yl)oxy)ethyl)piperazin-1-yl)pentanamido)-3,3-dimethylbutanoyl)-4-hydroxy-N-(4-(4-methylthiazol-5-yl)benzyl)pyrrolidine-2-carboxamide] | A (“A” indicates maximum degradation ≥75%) | > 0.1 | > 1 | < 50 |
| Cc1ncsc1-c1ccc([C@H](C)NC(=O)[C@@H]2C[C@@H](O)CN2C(=O)[C@@H](NC(=O)CCCCCCCCCCC(=O)NCc2ccc(CCOc3cc(-c4ccccc4O)nnc3N)cc2)C(C)(C)C)cc1 [Compound 247, N1-(4-(2-((3-amino-6-(2-hydroxyphenyl)pyridazin-4-yl)oxy)ethyl)benzyl)-N12-((S)-1-((2S,4R)-4-hydroxy-2-(((S)-1-(4-(4-methylthiazol-5-yl)phenyl)ethyl)carbamoyl)pyrrolidin-1-yl)-3,3-dimethyl-1-oxobutan-2-yl)dodecanediamide] | A (“A” indicates maximum degradation ≥75%) | > 0.01 | > 1 | < 50 |
| Nc1nnc(-c2ccccc2O)cc1N1CCN(CCNC(=O)CCOCCOCCNc2cccc3c2C(=O)N(C2CCC(=O)NC2=O)C3=O)CC1 (centres unmarked) [Compound 93] | C (“C” indicates maximum degradation <50%) | > 1 | > 1 | < 50 |
| Cc1ncsc1-c1ccc(CNC(=O)[C@@H]2C[C@@H](O)CN2C(=O)[C@@H](NC(=O)COCC(=O)NCc2ccc(CCOc3cc(-c4ccccc4O)nnc3N)cc2)C(C)(C)C)cc1 [Compound 165, (2S,4R)-1-((S)-2-(2-(2-((4-(2-((3-amino-6-(2-hydroxyphenyl)pyridazin-4-yl)oxy)ethyl)benzyl)amino)-2-oxoethoxy)acetamido)-3,3-dimethylbutanoyl)-4-hydroxy-N-(4-(4-methylthiazol-5-yl)benzyl)pyrrolidine-2-carboxamide] | A (“A” indicates maximum degradation ≥75%) | > 1 | > 1 | < 50 |
| Nc1nnc(-c2ccccc2O)cc1OCCc1ccc(CNC(=O)CCCCCCCCNc2cccc3c2C(=O)N(C2CCC(=O)NC2=O)C3=O)cc1 (centres unmarked) [Compound 71, N-[[4-(2-[[3-amino-6-(2-hydroxyphenyl)pyridazin-4-yl]oxy]ethyl)phenyl]methyl]-9-[[2-(2,6-dioxopiperidin-3-yl)-1,3-dioxoisoindol-4-yl]amino]nonanamide] | C (“C” indicates maximum degradation <50%) | > 1 | > 1 | < 50 |
| Nc1nnc(-c2ccccc2O)cc1OCCc1ccc(C(=O)N2CCC(C3CCN(C(=O)COc4cccc5c4C(=O)N(C4CCC(=O)NC4=O)C5=O)CC3)CC2)cc1 (centres unmarked) [Compound 49, 4-(2-(1′-(4-(2-((3-amino-6-(2-hydroxyphenyl)pyridazin-4-yl)oxy)ethyl)benzoyl)-[4,4′-bipiperidin]-1-yl)-2-oxoethoxy)-2-(2,6-dioxopiperidin-3-yl)isoindoline-1,3-dione] | C (“C” indicates maximum degradation <50%) | > 1 | > 1 | < 50 |
| Cc1ncsc1-c1ccc(CNC(=O)[C@@H]2C[C@@H](O)CN2C(=O)[C@@H](NC(=O)CCN2CC3(C2)CN(CC(=O)NCc2ccc(CCOc4cc(-c5ccccc5O)nnc4N)cc2)C3)C(C)(C)C)cc1 [Compound 196, (2S,4R)-1-((S)-2-(3-(6-(2-((4-(2-((3-amino-6-(2-hydroxyphenyl)pyridazin-4-yl)oxy)ethyl)benzyl)amino)-2-oxoethyl)-2,6-diazaspiro[3.3]heptan-2-yl)propanamido)-3,3-dimethylbutanoyl)-4-hydroxy-N-(4-(4-methylthiazol-5-yl)benzyl)pyrrolidine-2-carboxamide] | C (“C” indicates maximum degradation <50%) | > 1 | > 1 | < 50 |
| Cc1ncsc1-c1ccc(CNC(=O)[C@@H]2C[C@@H](O)CN2C(=O)[C@@H](NC(=O)CCCCN2CCN(CCC(=O)NCc3ccc(CCOc4cc(-c5ccccc5O)nnc4N)cc3)CC2)C(C)(C)C)cc1 [Compound 260, (2S,4R)-1-((S)-2-(5-(4-(3-((4-(2-((3-amino-6-(2-hydroxyphenyl)pyridazin-4-yl)oxy)ethyl)benzyl)amino)-3-oxopropyl)piperazin-1-yl)pentanamido)-3,3-dimethylbutanoyl)-4-hydroxy-N-(4-(4-methylthiazol-5-yl)benzyl)pyrrolidine-2-carboxamide] | C (“C” indicates maximum degradation <50%) | > 1 | > 1 | < 50 |
| Cc1ncsc1-c1ccc(CNC(=O)[C@@H]2C[C@@H](O)CN2C(=O)[C@@H](NC(=O)CCCCCCCCC(=O)NCc2ccc(CCN(C)c3cc(-c4ccccc4O)nnc3N)cc2)C(C)(C)C)cc1 [Compound 132, N′-[[4-(2-[[3-amino-6-(2-hydroxyphenyl)pyridazin-4-yl](methyl)amino]ethyl)phenyl]methyl]-N-[(2S)-1-[(2S,4R)-4-hydroxy-2-([[4-(4-methyl-1,3-thiazol-5-yl)phenyl]methyl]carbamoyl)pyrrolidin-1-yl]-3,3-dimethyl-1-oxobutan-2-yl]decanediamide] | A (“A” indicates maximum degradation ≥75%) | > 0.1 | > 1 | > 50 |
| Nc1nnc(-c2cc(F)ccc2O)cc1OCCc1ccc(CNCCCCCOc2cccc3c2C(=O)N(C2CCC(=O)NC2=O)C3=O)cc1 (centres unmarked) [Compound 118, 4-[[5-([[4-(2-[[3-amino-6-(5-fluoro-2-hydroxyphenyl)pyridazin-4-yl]oxy]ethyl)phenyl]methyl]amino)pentyl]oxy]-2-(2,6-dioxopiperidin-3-yl)isoindole-1,3-dione;formic acid salt] | B (“B” indicates maximum degradation ≥50%) | > 0.1 | > 1 | < 50 |
| Cc1ncsc1-c1ccc(CNC(=O)[C@@H]2C[C@@H](O)CN2C(=O)[C@@H](NC(=O)CCN2CCC(OC3CCN(C(=O)c4ccc(CCOc5cc(-c6ccccc6O)nnc5N)cc4)CC3)CC2)C(C)(C)C)cc1 [Compound 202, (2S,4R)-1-((S)-2-(3-(4-((1-(4-(2-((3-amino-6-(2-hydroxyphenyl)pyridazin-4-yl)oxy)ethyl)benzoyl)piperidin-4-yl)oxy)piperidin-1-yl)propanamido)-3,3-dimethylbutanoyl)-4-hydroxy-N-(4-(4-methylthiazol-5-yl)benzyl)pyrrolidine-2-carboxamide] | B (“B” indicates maximum degradation ≥50%) | > 1 | > 1 | < 50 |
